Test results taken from US20080280933A1, “BENZIMIDAZOLYL COMPOUNDS” (priority 2006, published 2008).
Where two headings read alike, the source gives them in different places.

Molecular target: T1, mGluR2 receptor (metabotropic glutamate receptor 2) (Homo sapiens, UniProt Q14416)
T1 construct: expressed in transfected cells
Experiment: mGluR2 Potentiator Screen, FLIPR, EC10-EC20 glutamate challenge
Format: cell-based
Description: Procedure for mGluR2 Potentiator Screen NLB Methods EC10-EC20 Challenge Cell Culture and Plating:
Cells used for this screen are HEK cells stably transfected with the mGluR2 receptor (metabotropic glutamate receptor 2) and the Gα15 G protein. Clones were identified by functional activity (FLIPR). Cells are grown in growth media containing: DMEM High Glucose with Glutamine and Na Pyruvate (GIBCO), 10% (v/v) Heat inactivate FBS (GIBCO) G418 500 ug/ml (from 50 mg/ml stock) (GIBCO) and Blasticidin 3 ug/ml (from 5 mg/ml stock made in H2O) (Invitrogen).
2 days before the assay cell are trypsinized with 0.25% trysin/EDTA (GIBCO), spun down at 1000 rpm for 5 minutes, resuspended in growth media and plated on polystyrene 384 well black wall/clear bottom poly-D-lysine coated plates at a density of approximately 18,000 cells/well in a volume of 50 μL per well. One day before the assay the growth media is removed from the plates by flicking and replaced with media containing DMEM High Glucose without Glutamine and Na Pyruvate (GIBCO) and 10% (v/v) dialyzed FBS (GIBCO). The reason for the removal of glutamine the day before the assay is to minimize the amount of glutamate that will be present during the assay, as endogenous glutarnate released from the cells can reduce the fluorescent response and interfere with the FLIPR screen.
FLIPR Methods and Data Analysis:
On the day of the assay, the FLIPR assay is performed using the following methods:
The pH is adjusted to 7.4 with 1M NaOH. Prepare a 2 mM (approx.) stock solution of Fluo-4.am (Molecular Probes) dye in DMSO −22 μl DMSO per 50 ug vial (440 μL per 1 mg vial). Make a 1 mM (approx.) flou-4, PA working solution per vial by adding 22 μl of 20% pluronic acid (PA) (Molecular Probes) in DMSO to each 50 ug vial (440 μL per 1 mg vial). Prepare a 250 mM Probenecid (Sigma) stock solution by dissolving 0.71 g into 5 ml 1N NaOH and 5 ml assay buffer (for each liter of assay wash buffer). Make 4 uM (approx.) dye incubation media by adding 2.50 ug vials per 11 ml DMEM high glucose without glutamine (220 ml per 1 mg vial). Add 110 μL probenecid stock per 11 ml (2.5 mM final [concentration]). To the dye media add 3 units/ml of glutamic-pyruvic transaminase (GPT, Sigma) and 3 mM Na Pyruvate. The assay has worked with dye concentrations from 2 uM to 8 uM dye as well. To the assay buffer from drug preparation, add 1.83 mls DMSO and 400 μL. 15.8% P104 (from New Leads biology) per liter for final concentrations of 0.18% DMSO and 0.006% P104. To the assay buffer for cell washing, add probenecid in the same manner and concentration that was used for the dye media.
Remove growth media from cell plates by flicking. Add 50 μl/well dye solution. Incubate 1 hour at 37° C. and 5% CO2. Remove dye solution and wash 3 times with assay buffer+probenecid (100 μl probenecid stock per 10 ml buffer), leaving 30 μL/well assay buffer. Wait at least 10-15 minutes. Compounds and agonist challenge additions are performed with the FLIPR. The in addition is for test compounds, which are added as 15 μL of 4× [concentration] of potentiator. The second 2nd addition is 15 μL of 4× [concentration] of agonist or challenge. This achieves 1× concentration of all compounds only after 2nd addition. The 1st and 2nd additions are performed separately using the FLIPR, which give 2 different data files. Compounds are pretreated at least 30 minutes before agonist addition.
Results are analyzed by dividing the peak fluorescent value of the FLIPR response by the […] to achieve a ratio response. The ratios are then analyzed by curve fitting programs. Since potent compounds can give an inverted U dose response curve (due to effects on endogenous glutamate by the potentiators) points are deleted at concentrations higher than the concentration that gives the maximum effect. Maximum values for dose response curves (forced fitting) are derived from standards on the plate.
Compound Preparation and Glutamate Challenge: […]

T1 sequence (Q14416 19-872, species assumed): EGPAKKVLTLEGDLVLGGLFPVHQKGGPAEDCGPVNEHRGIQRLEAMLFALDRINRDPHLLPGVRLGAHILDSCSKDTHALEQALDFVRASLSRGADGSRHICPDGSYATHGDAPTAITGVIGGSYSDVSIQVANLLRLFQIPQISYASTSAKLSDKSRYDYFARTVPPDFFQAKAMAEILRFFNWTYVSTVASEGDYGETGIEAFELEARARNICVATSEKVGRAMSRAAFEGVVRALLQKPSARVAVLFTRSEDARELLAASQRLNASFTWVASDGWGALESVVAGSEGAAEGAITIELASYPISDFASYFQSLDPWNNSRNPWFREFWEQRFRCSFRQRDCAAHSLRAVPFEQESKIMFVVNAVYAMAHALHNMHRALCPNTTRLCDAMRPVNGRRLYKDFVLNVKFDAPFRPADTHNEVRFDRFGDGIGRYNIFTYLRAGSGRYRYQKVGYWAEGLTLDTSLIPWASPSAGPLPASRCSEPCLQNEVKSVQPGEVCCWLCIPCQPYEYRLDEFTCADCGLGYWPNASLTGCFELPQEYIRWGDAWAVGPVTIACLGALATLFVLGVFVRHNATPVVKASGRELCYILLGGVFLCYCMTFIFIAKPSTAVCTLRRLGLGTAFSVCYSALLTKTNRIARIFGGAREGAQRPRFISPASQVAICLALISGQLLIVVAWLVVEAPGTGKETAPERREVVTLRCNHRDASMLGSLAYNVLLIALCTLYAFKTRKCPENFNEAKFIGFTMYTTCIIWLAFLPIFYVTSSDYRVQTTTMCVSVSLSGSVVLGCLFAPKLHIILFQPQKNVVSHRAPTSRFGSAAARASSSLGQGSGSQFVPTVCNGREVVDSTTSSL

## CCC(=O)C1(c2ccccc2)CCN(Cc2nc3ccccc3n2C)CC1 [compound 73]
EC50 (uM)
  EC50: 3.97 µM

## Cn1c(CN2CCC(c3ccccc3)CC2)nc2ccccc21 [compound 74]
read-out: EC50
  EC50: 0.212 µM

## Cn1c(CN2CCC(O)(c3ccc(Br)cc3)CC2)nc2ccccc21 [compound 75]
read-out: EC50
  EC50: > 7.48 µM

## Cn1c(CN2CCC(O)(c3ccc(Cl)cc3)CC2)nc2ccccc21 [compound 76]
read-out: EC50
  EC50: > 5.73 µM

## Cn1c(CN2CCC(C#N)(c3ccccc3)CC2)nc2ccccc21 [compound 77]
EC50 (uM)
  EC50: > 4.71 µM

## CC(C)Oc1ccccc1C1CCN(Cc2nc3ccccc3n2C)CC1 [compound 78]
read-out: EC50
  EC50: 0.475 µM

## Cn1c(CN2CCC(c3ccccc3F)CC2)nc2ccccc21 [compound 79]
read-out: EC50
  EC50: 0.021 µM

## C[C@@H]1CN(Cc2nc3ccccc3n2C)CC[C@]1(C)c1cccc(NS(C)(=O)=O)c1 [compound 80]
read-out: EC50
  EC50: > 1.25 µM

## COC(=O)c1cccc([C@]2(C)CCN(Cc3nc4ccccc4n3C)C[C@@H]2C)c1 [compound 81]
read-out: EC50
  EC50: 6.08 µM

## CC1CN(Cc2nc3ccccc3n2C)CC(C)C1(O)c1ccccc1 (centres unmarked) [compound 82]
read-out: EC50
  EC50: > 7.44 µM

## C[C@@H]1CN(c2cccc(C3CCN(Cc4nc5ccccc5n4C)CC3)c2)C[C@H](C)O1 [compound 83]
read-out: EC50
  EC50: 0.82 µM

## Cn1c(CN2CCC(c3ccccc3OCC3CCC3)CC2)nc2ccccc21 [compound 84]
read-out: EC50
  EC50: 0.744 µM

## CC1CN(CCOc2ccccc2C2CCN(Cc3nc4ccccc4n3C)CC2)CC(C)O1 (centres unmarked) [compound 85]
read-out: EC50
  EC50: 1.37 µM

## Cn1c(CN2CCC(c3ccccc3OCC3CCCC3)CC2)nc2ccccc21 [compound 86]
read-out: EC50
  EC50: 2.31 µM

## CC(C)OCCOc1ccccc1C1CCN(Cc2nc3ccccc3n2C)CC1 [compound 87]
read-out: EC50
  EC50: 0.621 µM

## CN(C)CCCOc1ccccc1C1CCN(Cc2nc3ccccc3n2C)CC1 [compound 88]
read-out: EC50
  EC50: 4.19 µM

## CCOCCOc1ccccc1C1CCN(Cc2nc3ccccc3n2C)CC1 [compound 89]
read-out: EC50
  EC50: 1.75 µM

## CCOCCCOc1ccccc1C1CCN(Cc2nc3ccccc3n2C)CC1 [compound 91]
read-out: EC50
  EC50: 1.4 µM

## Cn1c(CN2CCC(c3ccccc3OCCC3CC3)CC2)nc2ccccc21 [compound 92]
read-out: EC50
  EC50: > 3.27 µM

## CCCCCOc1ccccc1C1CCN(Cc2nc3ccccc3n2C)CC1 [compound 93]
read-out: EC50
  EC50: 0.324 µM

## CC[C@H](C)COc1ccccc1C1CCN(Cc2nc3ccccc3n2C)CC1 [compound 94]
read-out: EC50
  EC50: 1.61 µM

## CCCCOc1ccccc1C1CCN(Cc2nc3ccccc3n2C)CC1 [compound 95]
read-out: EC50
  EC50: 1.04 µM

## CC(C)COc1ccccc1C1CCN(Cc2nc3ccccc3n2C)CC1 [compound 96]
read-out: EC50
  EC50: > 3.92 µM

## Cn1c(CN2CCC(c3ccccc3OCCc3ccccn3)CC2)nc2ccccc21 [compound 97]
read-out: EC50
  EC50: > 9.64 µM

## CN1CCC[C@H]1COc1ccccc1C1CCN(Cc2nc3ccccc3n2C)CC1 [compound 98]
read-out: EC50
  EC50: > 4.81 µM

## Cn1c(CN2CCC(c3ccccc3OC3CCOCC3)CC2)nc2ccccc21 [compound 99]
read-out: EC50
  EC50: 2.12 µM

## CCOc1ccccc1C1CCN(Cc2nc3ccccc3n2C)CC1 [compound 100]
read-out: EC50
  EC50: 2.91 µM

## Cn1c(CN2CCC(c3ccccc3O[C@H]3CCOC3)CC2)nc2ccccc21 [compound 101]
read-out: EC50
  EC50: 5.72 µM

## Cn1c(CN2CCC(c3ccccc3OC3Cc4ccccc4C3)CC2)nc2ccccc21 [compound 102]
read-out: EC50
  EC50: 1.5 µM

## CC(Oc1ccccc1C1CCN(Cc2nc3ccccc3n2C)CC1)c1ccccc1 (centres unmarked) [compound 103]
read-out: EC50
  EC50: > 5.64 µM

## CCN1CC2(CCN(Cc3nc4ccccc4n3C)CC2)c2cc(Cl)ccc21 [compound 105]
read-out: EC50
  EC50: 3.37 µM

## CC(C)CN1CC2(CCN(Cc3nc4ccccc4n3C)CC2)c2ccccc21 [compound 106]
read-out: EC50
  EC50: 2.58 µM

## Cn1c(CN2CCC3(CC2)CN(CC2CCCO2)c2ccc(Cl)cc23)nc2ccccc21 (centres unmarked) [compound 107]
read-out: EC50
  EC50: 6.65 µM

## Cn1c(CN2CCC3(CC2)CN(Cc2cccnc2)c2ccc(Cl)cc23)nc2ccccc21 [compound 108]
read-out: EC50
  EC50: > 8.73 µM

## Cn1c(CN2CCC3(CC2)CN(Cc2ccccc2)c2ccccc23)nc2ccccc21 [compound 109]
read-out: EC50
  EC50: 5.22 µM

## CCN1CC2(CCN(Cc3nc4ccccc4n3C)CC2)c2ccccc21 [compound 110]
read-out: EC50
  EC50: 4.98 µM

## Cn1c(CN2CCC3(CC2)CN(CC(C)(C)C)c2ccccc23)nc2ccccc21 [compound 111]
read-out: EC50
  EC50: 10.3 µM

## Cn1c(CN2CCC3(CC2)CN(Cc2cccnc2)c2ccccc23)nc2ccccc21 [compound 112]
read-out: EC50
  EC50: > 9.88 µM

## CC(C)CN1CC2(CCN(Cc3nc4ccccc4n3C)CC2)c2cc(Cl)ccc21 [compound 113]
read-out: EC50
  EC50: 4.37 µM

## CCN1CC2(CCN(Cc3nc4ccccc4n3C)CC2)c2cc(F)ccc21 [compound 114]
read-out: EC50
  EC50: 2.38 µM

## CC(C)CN1CC2(CCN(Cc3nc4ccccc4n3C)CC2)c2cc(F)ccc21 [compound 115]
read-out: EC50
  EC50: 6.49 µM

## CC(C)CCN1CC2(CCN(Cc3nc4ccccc4n3C)CC2)c2ccccc21 [compound 116]
read-out: EC50
  EC50: 3.12 µM

## Cn1c(CN2CCC3(CC2)CN(CC2CCCO2)c2ccc(F)cc23)nc2ccccc21 (centres unmarked) [compound 117]
read-out: EC50
  EC50: > 9.01 µM

## CCN1CC2(CCN(Cc3nc4ccccc4n3C)CC2)c2cc(C)ccc21 [compound 118]
read-out: EC50
  EC50: 3.41 µM

## Cc1ccc2c(c1)C1(CCN(Cc3nc4ccccc4n3C)CC1)CN2CC(C)C [compound 119]
read-out: EC50
  EC50: 2.9 µM

## Cc1ccc2c(c1)C1(CCN(Cc3nc4ccccc4n3C)CC1)CN2CCC(C)C [compound 120]
read-out: EC50
  EC50: 2.7 µM

## Cc1cc(C)c2c(c1)C1(CCN(Cc3nc4ccccc4n3C)CC1)CN2CCC(C)C [compound 121]
read-out: EC50
  EC50: 1.15 µM

## Cc1cc(C)c2c(c1)C1(CCN(Cc3nc4ccccc4n3C)CC1)CN2CC1CCCO1 (centres unmarked) [compound 123]
read-out: EC50
  EC50: 5.03 µM

## Cc1ccc2c(c1)C1(CCN(Cc3nc4ccccc4n3C)CC1)CN2CC1CCCO1 (centres unmarked) [compound 124]
read-out: EC50
  EC50: 4.11 µM

## Cc1cc(C)c2c(c1)C1(CCN(Cc3nc4ccccc4n3C)CC1)CN2CC(C)C [compound 125]
read-out: EC50
  EC50: 3.93 µM

## CCC(CC)CN1CC2(CCN(Cc3nc4ccccc4n3C)CC2)c2cc(C)cc(C)c21 [compound 126]
read-out: EC50
  EC50: 6.01 µM

## CCCCN1CC2(CCN(Cc3nc4ccccc4n3C)CC2)c2cc(Cl)ccc21 [compound 127]
read-out: EC50
  EC50: 2.81 µM

## Cn1c(CN2CCC3(CC2)CNc2ccc(Cl)cc23)nc2ccccc21 [compound 128]
read-out: EC50
  EC50: > 8.98 µM

## Cn1c(CN2CCC3(CC2)CN(CC2CC2)c2ccc(Cl)cc23)nc2ccccc21 [compound 129]
read-out: EC50
  EC50: 2.51 µM

## CCCN1CC2(CCN(Cc3nc4ccccc4n3C)CC2)c2ccccc21 [compound 130]
read-out: EC50
  EC50: 3.08 µM

## CN1CC2(CCN(Cc3nc4ccccc4n3C)CC2)c2cc(Cl)ccc21 [compound 131]
read-out: EC50
  EC50: 1.76 µM

## CCCCN1CC2(CCN(Cc3nc4ccccc4n3C)CC2)c2ccccc21 [compound 132]
read-out: EC50
  EC50: 1.34 µM

## CCC(C)CN1CC2(CCN(Cc3nc4ccccc4n3C)CC2)c2ccccc21 (centres unmarked) [compound 133]
read-out: EC50
  EC50: 6.16 µM

## Cn1c(CN2CCC3(CC2)CN(CC2CC2)c2ccccc23)nc2ccccc21 [compound 134]
read-out: EC50
  EC50: 7.38 µM

## CN1CC2(CCN(Cc3nc4ccccc4n3C)CC2)c2ccccc21 [compound 135]
read-out: EC50
  EC50: 2.35 µM

## CN1CC2(CCN(Cc3nc4ccccc4n3C)CC2)c2cc(F)ccc21 [compound 136]
read-out: EC50
  EC50: 2.65 µM

## CCCN1CC2(CCN(Cc3nc4ccccc4n3C)CC2)c2cc(F)ccc21 [compound 137]
read-out: EC50
  EC50: > 7.89 µM

## Cn1c(CN2CCC3(CC2)CN(CC2CC2)c2ccc(F)cc23)nc2ccccc21 [compound 138]
read-out: EC50
  EC50: 8.59 µM

## CCCCN1CC2(CCN(Cc3nc4ccccc4n3C)CC2)c2cc(C)ccc21 [compound 139]
read-out: EC50
  EC50: 1.97 µM

## CCCCN1CC2(CCN(Cc3nc4ccccc4n3C)CC2)c2cc(F)ccc21 [compound 140]
read-out: EC50
  EC50: 2.12 µM
